Assay results reported in the kinase profiling compilation of Christmann-Franck et al. (2016).

Columns and labels:
Experiment in all cases: radiometric filter-binding kinase assay, Kinase HotSpot
Settings in all cases: compound 0.5 µM; ATP 10 µM
MARK2 (human) = MARK2 (human) (UniProt Q7KZI7)
MAP4K5 (human) = MAP4K5 (human) (UniProt Q9Y4K4)
CDK7 CCNH MNAT1 (human) = CDK7 CCNH MNAT1 (human) (UniProt P50613+P51948+P51946)
MAPK8 (human) = MAPK8 (human) (UniProt P45983)
MAP3K5 (human) = MAP3K5 (human) (UniProt Q99683)
TEC (human) = TEC (human) (UniProt P42680)
MAP3K10 (human) = MAP3K10 (human) (UniProt Q02779)
CSF1R (human) = CSF1R (human) (UniProt P07333)
PKN1 (human) = PKN1 (human) (UniProt Q16512)
CDK5 CDK5R1 p25 (human) = CDK5 CDK5R1 p25 (human) (UniProt Q00535+Q15078)
EPHA5 (human) = EPHA5 (human) (UniProt P54756)
FGFR3 (human) = FGFR3 (human) (UniProt P22607)
CAMK1G (human) = CAMK1G (human) (UniProt Q96NX5)
SRPK1 (human) = SRPK1 (human) (UniProt Q96SB4)
NUAK1 (human) = NUAK1 (human) (UniProt O60285)
EPHB1 (human) = EPHB1 (human) (UniProt P54762)
GRK6 (human) = GRK6 (human) (UniProt P43250)
HIPK2 (human) = HIPK2 (human) (UniProt Q9H2X6)
MUSK (human) = MUSK (human) (UniProt O15146)
MAP3K3 (human) = MAP3K3 (human) (UniProt Q99759)
CDK9 CCNT1 (human) = CDK9 CCNT1 (human) (UniProt P50750+O60563)
TSSK2 (human) = TSSK2 (human) (UniProt Q96PF2)
RPS6KB1 (human) = RPS6KB1 (human) (UniProt P23443)
NLK (human) = NLK (human) (UniProt Q9UBE8)
MAP3K11 (human) = MAP3K11 (human) (UniProt Q16584)
ROS1 (human) = ROS1 (human) (UniProt P08922)
NEK6 (human) = NEK6 (human) (UniProt Q9HC98)
MET (human) = MET (human) (UniProt P08581)
PRKCD (human) = PRKCD (human) (UniProt Q05655)
EPHB3 (human) = EPHB3 (human) (UniProt P54753)
GSK3A (human) = GSK3A (human) (UniProt P49840)
GRK7 (human) = GRK7 (human) (UniProt Q8WTQ7)
ROCK2 (human) = ROCK2 (human) (UniProt O75116)
AKT3 (human) = AKT3 (human) (UniProt Q9Y243)
RPS6KA2 KD1 KD2 (human) = RPS6KA2 KD1 KD2 (human) (UniProt Q15349)
PLK2 (human) = PLK2 (human) (UniProt Q9NYY3)
RPS6KA6 KD1 KD2 (human) = RPS6KA6 KD1 KD2 (human) (UniProt Q9UK32)
CDK3 CCNE1 (human) = CDK3 CCNE1 (human) (UniProt Q00526+P24864)
AKT2 (human) = AKT2 (human) (UniProt P31751)
PRKG2 (human) = PRKG2 (human) (UniProt Q13237)
MINK1 (human) = MINK1 (human) (UniProt Q8N4C8)

Sequence of TEC (human) (P42680 whole entry, looked up): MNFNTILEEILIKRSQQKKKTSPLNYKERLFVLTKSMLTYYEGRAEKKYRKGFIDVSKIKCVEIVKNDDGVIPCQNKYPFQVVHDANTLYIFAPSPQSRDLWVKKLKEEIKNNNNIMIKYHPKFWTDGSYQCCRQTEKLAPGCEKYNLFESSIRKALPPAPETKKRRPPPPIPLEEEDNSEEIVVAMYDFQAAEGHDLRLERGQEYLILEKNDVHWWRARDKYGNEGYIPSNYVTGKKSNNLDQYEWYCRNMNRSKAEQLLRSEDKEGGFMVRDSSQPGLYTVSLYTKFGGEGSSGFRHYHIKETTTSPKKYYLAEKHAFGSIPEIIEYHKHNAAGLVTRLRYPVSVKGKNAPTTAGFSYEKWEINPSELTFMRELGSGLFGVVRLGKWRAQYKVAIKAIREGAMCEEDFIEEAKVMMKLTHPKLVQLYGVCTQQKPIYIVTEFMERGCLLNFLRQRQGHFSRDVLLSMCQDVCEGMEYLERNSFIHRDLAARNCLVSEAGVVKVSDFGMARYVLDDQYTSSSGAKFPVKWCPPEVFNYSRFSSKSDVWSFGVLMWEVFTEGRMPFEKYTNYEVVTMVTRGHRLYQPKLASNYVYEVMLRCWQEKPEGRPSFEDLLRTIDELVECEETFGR
Sequence of HIPK2 (human) (Q9H2X6 whole entry, looked up): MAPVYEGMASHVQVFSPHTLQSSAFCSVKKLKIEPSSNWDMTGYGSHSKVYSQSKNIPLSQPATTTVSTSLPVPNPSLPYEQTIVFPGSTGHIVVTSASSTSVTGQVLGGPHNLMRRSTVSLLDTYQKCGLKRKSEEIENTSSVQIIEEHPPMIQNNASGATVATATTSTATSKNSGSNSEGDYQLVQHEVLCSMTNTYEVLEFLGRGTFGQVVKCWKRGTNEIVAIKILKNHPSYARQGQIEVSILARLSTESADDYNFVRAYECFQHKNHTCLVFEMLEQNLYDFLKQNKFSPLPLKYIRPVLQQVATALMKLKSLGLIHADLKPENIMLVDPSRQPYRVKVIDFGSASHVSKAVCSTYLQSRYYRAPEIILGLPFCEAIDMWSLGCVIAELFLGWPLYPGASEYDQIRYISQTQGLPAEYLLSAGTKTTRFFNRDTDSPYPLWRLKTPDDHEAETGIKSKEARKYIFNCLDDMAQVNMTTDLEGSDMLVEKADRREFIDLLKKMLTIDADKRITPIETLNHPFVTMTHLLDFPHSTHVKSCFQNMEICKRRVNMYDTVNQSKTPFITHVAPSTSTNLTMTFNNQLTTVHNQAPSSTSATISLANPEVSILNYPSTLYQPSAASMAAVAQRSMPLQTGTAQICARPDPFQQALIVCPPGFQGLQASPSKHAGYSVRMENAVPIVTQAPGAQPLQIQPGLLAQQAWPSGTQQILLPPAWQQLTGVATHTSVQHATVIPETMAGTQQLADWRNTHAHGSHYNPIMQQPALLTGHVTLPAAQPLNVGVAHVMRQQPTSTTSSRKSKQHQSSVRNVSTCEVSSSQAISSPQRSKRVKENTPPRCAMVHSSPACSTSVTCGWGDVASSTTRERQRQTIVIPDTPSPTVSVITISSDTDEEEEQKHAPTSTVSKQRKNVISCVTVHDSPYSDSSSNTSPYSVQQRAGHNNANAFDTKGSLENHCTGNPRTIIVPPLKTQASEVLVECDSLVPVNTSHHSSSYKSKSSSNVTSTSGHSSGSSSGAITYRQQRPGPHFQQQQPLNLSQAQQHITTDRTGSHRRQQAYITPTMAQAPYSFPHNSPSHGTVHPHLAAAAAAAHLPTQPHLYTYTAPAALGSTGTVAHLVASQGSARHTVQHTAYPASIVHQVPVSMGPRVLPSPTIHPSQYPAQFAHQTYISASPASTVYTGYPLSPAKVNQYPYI
Sequence of CDK7 CCNH MNAT1 (human) (P50613 whole entry, looked up): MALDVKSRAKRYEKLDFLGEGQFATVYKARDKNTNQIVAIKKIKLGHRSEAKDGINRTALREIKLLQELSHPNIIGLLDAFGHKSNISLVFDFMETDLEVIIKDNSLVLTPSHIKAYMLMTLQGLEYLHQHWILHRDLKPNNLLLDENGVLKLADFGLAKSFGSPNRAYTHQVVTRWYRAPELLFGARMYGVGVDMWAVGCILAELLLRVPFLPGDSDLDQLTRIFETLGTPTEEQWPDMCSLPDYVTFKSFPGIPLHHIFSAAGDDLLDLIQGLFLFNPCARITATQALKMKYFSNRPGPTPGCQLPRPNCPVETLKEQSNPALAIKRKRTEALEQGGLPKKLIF
Sequence of CDK7 CCNH MNAT1 (human) (P51946 whole entry, looked up): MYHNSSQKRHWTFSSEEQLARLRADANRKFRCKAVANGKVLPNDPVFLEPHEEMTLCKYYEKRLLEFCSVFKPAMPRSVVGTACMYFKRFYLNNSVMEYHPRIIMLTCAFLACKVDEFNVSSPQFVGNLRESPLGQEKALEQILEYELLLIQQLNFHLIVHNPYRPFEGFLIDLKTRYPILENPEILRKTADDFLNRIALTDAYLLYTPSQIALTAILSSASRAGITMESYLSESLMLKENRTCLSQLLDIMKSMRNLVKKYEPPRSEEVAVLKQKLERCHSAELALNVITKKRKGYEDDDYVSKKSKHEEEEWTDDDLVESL
Sequence of CDK7 CCNH MNAT1 (human) (P51948 whole entry, looked up): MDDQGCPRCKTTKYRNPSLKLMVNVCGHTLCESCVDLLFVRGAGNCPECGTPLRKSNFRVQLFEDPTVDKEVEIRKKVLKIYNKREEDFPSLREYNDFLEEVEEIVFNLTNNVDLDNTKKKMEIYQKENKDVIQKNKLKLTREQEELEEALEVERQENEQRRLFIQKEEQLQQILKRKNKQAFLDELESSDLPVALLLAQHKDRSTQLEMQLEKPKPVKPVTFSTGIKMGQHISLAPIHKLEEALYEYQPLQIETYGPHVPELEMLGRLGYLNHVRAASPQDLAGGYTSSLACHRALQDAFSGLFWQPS
Sequence of MAP4K5 (human) (Q9Y4K4 whole entry, looked up): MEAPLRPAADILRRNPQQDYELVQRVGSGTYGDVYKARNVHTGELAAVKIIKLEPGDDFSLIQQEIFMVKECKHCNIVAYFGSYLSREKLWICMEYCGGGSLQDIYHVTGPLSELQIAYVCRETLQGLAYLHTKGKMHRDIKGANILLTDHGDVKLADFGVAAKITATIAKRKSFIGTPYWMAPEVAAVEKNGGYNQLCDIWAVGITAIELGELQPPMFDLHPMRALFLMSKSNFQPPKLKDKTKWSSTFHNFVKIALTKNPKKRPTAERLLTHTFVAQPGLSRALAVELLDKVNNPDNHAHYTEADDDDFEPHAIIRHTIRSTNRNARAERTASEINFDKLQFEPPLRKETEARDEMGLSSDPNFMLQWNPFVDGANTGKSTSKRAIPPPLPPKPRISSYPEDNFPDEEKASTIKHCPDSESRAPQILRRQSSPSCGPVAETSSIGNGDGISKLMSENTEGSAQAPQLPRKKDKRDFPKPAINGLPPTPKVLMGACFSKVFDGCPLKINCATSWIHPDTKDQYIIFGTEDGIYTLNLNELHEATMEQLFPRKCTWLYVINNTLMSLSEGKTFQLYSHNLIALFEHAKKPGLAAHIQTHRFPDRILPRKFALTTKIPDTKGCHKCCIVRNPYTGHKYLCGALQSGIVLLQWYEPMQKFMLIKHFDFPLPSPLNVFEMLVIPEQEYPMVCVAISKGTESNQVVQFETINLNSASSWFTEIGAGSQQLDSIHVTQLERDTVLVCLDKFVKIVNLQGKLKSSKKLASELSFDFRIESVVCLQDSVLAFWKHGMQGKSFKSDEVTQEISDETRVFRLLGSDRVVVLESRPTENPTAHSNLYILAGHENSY
Sequence of NUAK1 (human) (O60285 whole entry, looked up): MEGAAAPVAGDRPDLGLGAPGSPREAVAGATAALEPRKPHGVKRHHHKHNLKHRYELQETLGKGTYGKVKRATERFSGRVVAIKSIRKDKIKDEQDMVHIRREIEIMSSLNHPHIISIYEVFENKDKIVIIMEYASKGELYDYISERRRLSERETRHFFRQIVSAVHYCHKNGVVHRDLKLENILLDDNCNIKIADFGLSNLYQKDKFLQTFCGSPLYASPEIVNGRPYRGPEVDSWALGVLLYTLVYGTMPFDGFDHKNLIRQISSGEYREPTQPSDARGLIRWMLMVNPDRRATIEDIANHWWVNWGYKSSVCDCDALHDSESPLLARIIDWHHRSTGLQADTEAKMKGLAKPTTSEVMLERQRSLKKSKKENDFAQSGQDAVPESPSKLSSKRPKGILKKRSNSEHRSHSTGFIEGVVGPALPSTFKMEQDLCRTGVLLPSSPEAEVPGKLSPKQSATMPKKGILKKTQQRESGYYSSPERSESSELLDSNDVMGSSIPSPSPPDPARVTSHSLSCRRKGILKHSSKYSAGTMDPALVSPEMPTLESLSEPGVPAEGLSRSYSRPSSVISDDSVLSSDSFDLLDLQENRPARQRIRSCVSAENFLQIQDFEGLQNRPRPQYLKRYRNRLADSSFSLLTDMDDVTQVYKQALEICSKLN
Sequence of NEK6 (human) (Q9HC98 whole entry, looked up): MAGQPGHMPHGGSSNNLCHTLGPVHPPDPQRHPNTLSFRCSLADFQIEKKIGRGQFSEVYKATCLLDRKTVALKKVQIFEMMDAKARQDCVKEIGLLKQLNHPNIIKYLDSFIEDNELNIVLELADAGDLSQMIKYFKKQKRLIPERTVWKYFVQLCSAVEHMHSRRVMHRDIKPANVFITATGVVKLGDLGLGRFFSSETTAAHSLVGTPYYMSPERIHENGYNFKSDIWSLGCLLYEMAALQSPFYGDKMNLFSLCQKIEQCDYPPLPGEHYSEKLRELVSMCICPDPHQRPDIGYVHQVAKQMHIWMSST
Sequence of TSSK2 (human) (Q96PF2 whole entry, looked up): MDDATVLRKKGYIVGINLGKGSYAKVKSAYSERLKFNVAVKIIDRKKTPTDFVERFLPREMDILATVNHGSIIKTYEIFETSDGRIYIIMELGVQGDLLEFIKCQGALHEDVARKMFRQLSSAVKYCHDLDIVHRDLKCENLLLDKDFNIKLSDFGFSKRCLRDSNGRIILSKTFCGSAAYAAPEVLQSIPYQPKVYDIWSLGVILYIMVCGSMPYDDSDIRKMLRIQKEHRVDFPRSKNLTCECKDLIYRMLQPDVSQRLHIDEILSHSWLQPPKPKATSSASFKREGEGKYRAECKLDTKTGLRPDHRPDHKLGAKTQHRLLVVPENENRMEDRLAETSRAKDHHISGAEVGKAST

| Compound | residual activity (MARK2 (human)) [%] | residual activity (MAP4K5 (human)) [%] | residual activity (CDK7 CCNH MNAT1 (human)) [%] | residual activity (MAP3K5 (human)) [%] | residual activity (TEC (human)) [%] | residual activity (MAP3K10 (human)) [%] | residual activity (PKN1 (human)) [%] | residual activity (EPHA5 (human)) [%] | residual activity (CAMK1G (human)) [%] | residual activity (NUAK1 (human)) [%] | residual activity (EPHB1 (human)) [%] | residual activity (GRK6 (human)) [%] | residual activity (HIPK2 (human)) [%] | residual activity (MUSK (human)) [%] | residual activity (CDK9 CCNT1 (human)) [%] | residual activity (TSSK2 (human)) [%] | residual activity (RPS6KB1 (human)) [%] | residual activity (NLK (human)) [%] | residual activity (MAP3K11 (human)) [%] | residual activity (ROS1 (human)) [%] | also measured |
| --- | --- | --- | --- | --- | --- | --- | --- | --- | --- | --- | --- | --- | --- | --- | --- | --- | --- | --- | --- | --- | --- |
| COc1cc2ncnc(Nc3ccc(F)c(Cl)c3)c2cc1OCCCN1CCOCC1 | 119 | 80 | 105 | 103 | 104 | 109 | 105 | 95.8 | 103 | 99.1 | 94.8 | 99.6 | 99.7 | 98.1 | 87.3 | 91.5 | 93.9 | 91.1 | 102 | 92.3 | residual activity (MAPK8 (human)): 93.1%; residual activity (CSF1R (human)): 110%; residual activity (CDK5 CDK5R1 p25 (human)): 95.4%; residual activity (FGFR3 (human)): 79.3%; residual activity (SRPK1 (human)): 98.3%; residual activity (MAP3K3 (human)): 107%; residual activity (NEK6 (human)): 89.9%; residual activity (MET (human)): 92.4%; residual activity (PRKCD (human)): 106%; residual activity (EPHB3 (human)): 57.5%; residual activity (GSK3A (human)): 99.7%; residual activity (GRK7 (human)): 96.2%; residual activity (ROCK2 (human)): 90.8%; residual activity (AKT3 (human)): 84.6%; residual activity (RPS6KA2 KD1 KD2 (human)): 82.3%; residual activity (PLK2 (human)): 100%; residual activity (RPS6KA6 KD1 KD2 (human)): 95.2%; residual activity (CDK3 CCNE1 (human)): 95% |
| Clc1ccc(Nc2nnc(Cc3ccncc3)c3ccccc23)cc1 | 133 | 101 | 107 | 101 | 137 | 110 | 95.9 | 109 | 107 | 112 | 107 | 99.9 | 101 | 105 | 94.9 | 82.8 | 102 | 99.3 | 106 | 94.7 | residual activity (AKT2 (human)): 104%; residual activity (MAPK8 (human)): 98.2%; residual activity (PRKG2 (human)): 101%; residual activity (CDK5 CDK5R1 p25 (human)): 91.3%; residual activity (FGFR3 (human)): 91.5%; residual activity (SRPK1 (human)): 98.5%; residual activity (MAP3K3 (human)): 118%; residual activity (MINK1 (human)): 104%; residual activity (NEK6 (human)): 93.3%; residual activity (MET (human)): 94%; residual activity (PRKCD (human)): 97.4%; residual activity (EPHB3 (human)): 65.1%; residual activity (GSK3A (human)): 103%; residual activity (GRK7 (human)): 92.2%; residual activity (ROCK2 (human)): 95.4%; residual activity (AKT3 (human)): 89.9%; residual activity (RPS6KA2 KD1 KD2 (human)): 97.5%; residual activity (PLK2 (human)): 101%; residual activity (RPS6KA6 KD1 KD2 (human)): 99.7%; residual activity (CDK3 CCNE1 (human)): 92.7% |
| C#Cc1cccc(Nc2ncnc3cc(OCCOC)c(OCCOC)cc23)c1 | 129 | 95.6 | 107 | 102 | 96.2 | 108 | 108 | 99.1 | 111 | 98 | 100 | 99.2 | 99.3 | 94.6 | 87.3 | 87.6 | 95.1 | 103 | 104 | 99.6 | residual activity (AKT2 (human)): 108%; residual activity (PRKG2 (human)): 107%; residual activity (CDK5 CDK5R1 p25 (human)): 90.5%; residual activity (NEK6 (human)): 89.1%; residual activity (PRKCD (human)): 104%; residual activity (EPHB3 (human)): 58%; residual activity (GSK3A (human)): 99.3%; residual activity (GRK7 (human)): 98.3%; residual activity (ROCK2 (human)): 91%; residual activity (AKT3 (human)): 74.6%; residual activity (RPS6KA2 KD1 KD2 (human)): 101%; residual activity (PLK2 (human)): 104%; residual activity (RPS6KA6 KD1 KD2 (human)): 99.1%; residual activity (CDK3 CCNE1 (human)): 95.6% |
| CC(C)(C)c1nc2c3ccc(F)cc3c3c(=O)[nH]ccc3c2[nH]1 | 41.5 | 65.8 | 92.8 | 84.4 | 106 | 89.7 | 28.3 | 100 | 95.3 | 3.04 | 94.9 | 48.2 | 98.7 | 81.7 | 100 | 92.5 | 74.1 | 26.1 | 57 | 31.2 | residual activity (AKT2 (human)): 89.8%; residual activity (MAPK8 (human)): 73.7%; residual activity (CSF1R (human)): 93%; residual activity (PRKG2 (human)): 14.3%; residual activity (FGFR3 (human)): 93%; residual activity (SRPK1 (human)): 115%; residual activity (MAP3K3 (human)): 61.1%; residual activity (MINK1 (human)): 52%; residual activity (NEK6 (human)): 82.5%; residual activity (PRKCD (human)): 43.6%; residual activity (EPHB3 (human)): 87.1%; residual activity (GSK3A (human)): 121%; residual activity (GRK7 (human)): 60.5%; residual activity (ROCK2 (human)): 70.7%; residual activity (AKT3 (human)): 76.4%; residual activity (RPS6KA2 KD1 KD2 (human)): 34.6%; residual activity (PLK2 (human)): 92.6%; residual activity (RPS6KA6 KD1 KD2 (human)): 33.9%; residual activity (CDK3 CCNE1 (human)): 92.1% |
| CCN1/C(=C/C(C)=O)Sc2ccc(OC)cc21 | 89.5 | 92.3 | 94.8 | 118 | 116 | 95 | 100 | 97.8 | 101 | 93.4 | 90.6 | 103 | 100 | 28.4 | 101 | 106 | 95 | 103 | 102 | 113 | residual activity (AKT2 (human)): 95.2%; residual activity (MAPK8 (human)): 102%; residual activity (CSF1R (human)): 93.8%; residual activity (PRKG2 (human)): 65.8%; residual activity (CDK5 CDK5R1 p25 (human)): 87.9%; residual activity (FGFR3 (human)): 99.1%; residual activity (SRPK1 (human)): 106%; residual activity (MAP3K3 (human)): 114%; residual activity (NEK6 (human)): 109%; residual activity (MET (human)): 103%; residual activity (PRKCD (human)): 88.2%; residual activity (EPHB3 (human)): 90.3%; residual activity (GSK3A (human)): 85.7%; residual activity (GRK7 (human)): 104%; residual activity (ROCK2 (human)): 90.7%; residual activity (AKT3 (human)): 96.1%; residual activity (RPS6KA2 KD1 KD2 (human)): 83.3%; residual activity (PLK2 (human)): 100%; residual activity (RPS6KA6 KD1 KD2 (human)): 89%; residual activity (CDK3 CCNE1 (human)): 91.5% |
